Laboratory results as given in EP4663191A1, “USE OF TYROSINE KINASE INHIBITOR” (Qilu Animal Health Products Co., Ltd., priority 2023, dated 2024).
Several values for one entry are separate records, joined by “and”; a condition that tells them apart may be missing. Equal values may be shown once.

Assays:
[1] = tested on: mouse mast cell tumor P815 cells; assay: In vivo efficacy in DBA/2 mouse model of subcutaneous homologous transplantation of P815 cells; conditions: for Tumor volume (mm^3): average ±SEM; for TGI: Day 8, vs vehicle control
Text: Test sample: the dimaleate of the compound of formula (I) of the present application (content: 99.7%), and Toceranib phosphate (content: 98.2%, commercially available), the concentration and dosage of administration of the test sample prepared in the following implementation are all calculated in terms of free alkali.
Test animal: the species is mouse; the strain is DBA/2 mouse; the age is 6-8 weeks old, and the weight is 19-24 g; and the gender is female.
Experimental methods and steps: mouse mast cell tumor P815 cells (ATCC-TIB-64) were adherent and cultured in vitro. The culture conditions were DMEM medium, 10 vol% fetal bovine serum, 1 vol% double antibody, and cultured in a cell incubator at 37 °C with 5% CO2. Conventional digestion treatment and passage were carried out twice a week with trypsin-EDTA. When the cell saturation reached 80-90% and the quantity satisfied the requirements, the cells were collected, counted and inoculated.
0.1 mL of PBS containing 5×10^5 P815 cells was subcutaneously inoculated into the subcutaneous area of the right forelimb axilla of each mouse. At day 8 after cell inoculation, when the average tumor volume reached 100 mm^3, group administration was started. The experiment was grouped into a negative control group (without an active ingredient), an administration group, and a positive control group (with the active ingredient Toceranib), with 8 mice in each group. The negative control (vehicle), the dimaleate of the compound of formula (I), and Toceranib phosphate were administered orally once daily for an 8-day administration period. Health status and mortality of animals were monitored every day. Routine examinations included observing the effects of tumor growth and drug treatment on daily behavioral performance of animals, such as behavioral activities, food and water intake (only visually), weight changes (measuring weight twice a week), appearance signs or other abnormal conditions. Table 1. Preparation methods of the test samples
Table 2. Grouping of experimental animals and administration protocols
The experimental indicators were to examine whether the tumor growth was inhibited, delayed or cured. The diameter of the tumor was measured with a vernier caliper. The calculation formula for tumor volume was: V = 0.5a × b^2 , [formula] wherein a and b represented the long diameter and the short diameter of the tumor, respectively. The anti-tumor efficacy of the compound was determined by TGI (%). TGI (%) reflects the rate of tumor growth inhibition. Calculation of TGI (%): TGI (%) = [1-(Average tumor volume at the end of administration in a certain treatment group - Average tumor volume at the start of administration in this treatment group) / (Average tumor volume at the end of treatment in the vehicle control group - Average tumor volume at the start of treatment in the vehicle control group)] ×100%.

[2] = tested on: mouse mast cell tumor cells P815 cells (ATCC-TIB-64); assay: MTT assay (thiazolyl blue colorimetric assay), inhibition of tumor cell proliferation; format: cell-based
Protocol: Test sample: the dimaleate of the compound of formula (I) of the present application.
The inhibition effect of the dimaleate of the compound of formula (I) on the growth of mouse mast cell tumor cells P815 cells (ATCC-TIB-64) was detected by MTT assay (thiazolyl blue colorimetric assay), and IC50 (half inhibitory concentration) was calculated and obtained.

canine mast cell tumor = assay: Anti-tumor effect in dogs with mast cell tumors (clinical cases); format: in vivo
Protocol: (§1) Since May 2021, a total of 14 dogs with mast cell tumors have been collected and enrolled for treatment with a dimaleate of the compound of formula (I). Table 4: Clinical staging criteria for canine cutaneous mast cell tumors
(§2) The affected dogs with mast cell tumor were administered with the drug of the dimaleate of the compound of formula (I) at a dose of 2.0 mg/kg to 3.25 mg/kg (all doses were calculated based on free base, the same below), orally once every other day. For affected dogs with assessable solid tumors, baseline assessment was performed before the first trial medication. After the administration of the first trial medication, mass measurement and blood routine examination were performed every 2 weeks, and blood biochemical examination and imaging examination were performed every 4 weeks to evaluate the response to tumor treatment until disease progression, intolerable drug withdrawal due to treatment-related side effects, or death of enrolled dogs, and to evaluate the efficacy and safety of the compound of formula (I) in the treatment of a canine mast cell tumor and a breast tumor. The primary observation endpoints: objective response rate (ORR), disease control rate (DCR), progression-free survival (PFS), and overall survival (OS); complete response (CR), partial response (PR), stable disease (SD), and progressive disease (PD).

[3] = Adverse reactions and safety in dogs with mast cell tumors under treatment (VCOG-CTCAE); format: in vivo
Protocol: as §1, §2
(Adverse event assessment criteria refer to VCOG-CTCAE (Veterinary cooperative oncology group-common terminology criteria for adverse events (VCOG-CTCAE) following chemotherapy or biological antineoplastic therapy in dogs and cats v1.1. Vet Comp Oncol. 2016)).

[4] = 14 dogs, 2.0 mg/kg to 3.25 mg/kg orally once every other day, n=4

Cc1[nH]c(/C=C2\C(=O)Nc3ccc(F)cc32)c(C)c1C(=O)NCCN1CCCC1 [Toceranib, reference compound]
Tumor volume (mm^3) ([1]; Day 0 after administration, 40mg/kg PO QD): 100±4 mm^3 | Tumor volume (mm^3) ([1]; Day 2 after administration, 40mg/kg PO QD): 127±6 mm^3 | Tumor volume (mm^3) ([1]; Day 4 after administration, 40mg/kg PO QD): 231±14 mm^3 | Tumor volume (mm^3) ([1]; Day 6 after administration, 40mg/kg PO QD): 299±15 mm^3 | TGI ([1]; 40 mg/kg PO QD, p < 0.001): 43.38% | Tumor volume (mm^3) ([1]; Day 8 after administration, 40mg/kg PO QD, 40 mg/kg): 510 mm^3 and 510±38 mm^3

Cc1[nH]c(/C=C2\C(=O)Nc3ccc(F)cc32)c(C)c1NC(=O)CCN1CCN(C)CC1 [dimaleate of the compound of formula (I), N-(5-((Z)-(5-fluoro-2-carbonylindole-3-ylidene)methyl)-2,4-dimethyl-1H-pyrrol-3-yl)-3-(4-methylpiperazin-1-yl) propanamide]
IC50 [2]: 474 nM | Tumor volume (mm^3) ([1]; Day 0 after administration, 20mg/kg PO QD): 100±4 mm^3 | Tumor volume (mm^3) ([1]; Day 2 after administration, 20mg/kg PO QD): 141±22 mm^3 | Tumor volume (mm^3) ([1]; Day 4 after administration, 20mg/kg PO QD): 244±35 mm^3 | Tumor volume (mm^3) ([1]; Day 6 after administration, 20mg/kg PO QD): 319±55 mm^3 | TGI ([1]; 20 mg/kg PO QD, p = 0.003): 47.25% | Tumor volume (mm^3) ([1]; Day 8 after administration, 20mg/kg PO QD, listed as Compound of formula (I), 20 mg/kg): 483 ±93 mm^3 | Tumor volume (mm^3) ([1]; Day 8 after administration, 20mg/kg PO QD, listed as compound of formula (I), 20 mg/kg): 483 mm^3 | mass decreased compared with the baseline (canine mast cell tumor; Case 1 Golden Retriever, 3.07 mg/kg, 14 days (October 17)): 12% | recurrence of the mass (canine mast cell tumor; Case 1 Golden Retriever, after excision, 2.63 mg/kg, postoperative days 47, 82, 117 and 145): no recurrence of the mass was seen on the skin | survival period (canine mast cell tumor; Case 1 Golden Retriever, as of March 28, 2022, 66 doses): greater than 176 days | total survival period (canine mast cell tumor; Case 2 Tibetan mastiff, 2.84 mg/kg, died September 18, 2021): 117 days | mass on the cephalic side of the vulva (canine mast cell tumor; Case 3 Labrador, 2.42 mg/kg, after 14 days, non-target lesion): significantly reduced | survival period (canine mast cell tumor; Case 3 Labrador, as of April 17, 2022, medication 51 times): greater than 126 days | enlargement of the mass on the cephalic side of the vulva (canine mast cell tumor; Case 3 Labrador, day 42 and day 77 of treatment, non-target lesion): No enlargement | survival period (canine mast cell tumor; Case 4 Golden Retriever, 2.3-2.4 mg/kg, still under therapy): greater than 259 days | Nasal ultrasound (canine mast cell tumor; Case 4 Golden Retriever, re-examined August 7): subcutaneous mass accompanied by invasive changes in adjacent turbinate bone | Nasal ultrasound (canine mast cell tumor; Case 4 Golden Retriever, re-examined June 6): subcutaneous mass is suspected of invading the nasal cavity | blood in urine (treatment-related clinical adverse reaction) ([3]; 14 dogs, 2.0 mg/kg to 3.25 mg/kg orally once every other day, n=1, occasionally): 7.1% | vomiting (treatment-related clinical adverse reaction) ([3]; 14 dogs, 2.0 mg/kg to 3.25 mg/kg orally once every other day, n=3): 21.4% | blood in stool (treatment-related clinical adverse reaction) [3, 4]: 28.6% | decreased appetite (treatment-related clinical adverse reaction) [3, 4]: 28.6% | diarrhea (treatment-related clinical adverse reaction) ([3]; 14 dogs, 2.0 mg/kg to 3.25 mg/kg orally once every other day, n=9): 64.3% | grade 3 or 4 adverse reactions ([3]; 14 dogs, VCOG-CTCAE v1.1): No grade 3 or 4 adverse reactions were observed | blood routine and serum biochemistry ([3]; Case 2 Tibetan mastiff, 2.84 mg/kg, June 21): no obvious abnormality was seen compared with the baseline | adverse effects after administration ([3]; Case 4 Golden Retriever, stage I, no c-kit mutation, 2.4 mg/kg from January 2): no significant adverse effects were observed | adverse reactions after medication ([3]; Case 4 Golden Retriever, 2.3 mg/kg from April 10 and from June 6): no obvious adverse reactions occurred after medication | adverse reactions after taking the medicine ([3]; Case 4 Golden Retriever, continued at 2.4mg/kg from February 13): symptoms of soft stool and diarrhea occurred | blood routine and serum biochemistry ([3]; Case 4 Golden Retriever, re-examined February 13, April 10, June 6 (August 7: blood routine only)): no obvious abnormalities were found | adverse reactions after medication ([3]; Case 5 Golden Retriever, 2.25 mg/kg from October 15): no obvious adverse reactions occurred after medication | adverse reactions during treatment ([3]; Case 5 Golden Retriever, 2.75 mg/kg, reported at October 15): Thin and watery stools occurred during a period | adverse reactions after dosing ([3]; Case 5 Golden Retriever, 3.25 mg/kg from September 3): soft stools appeared once after dosing | adverse reactions after dosing ([3]; Case 5 Golden Retriever, dosage adjusted to 2.75 mg/kg on September 7): no significant adverse reactions after dosing
